The values that follow come from paper PMC9241925, “DWV 3C Protease Uncovers the Diverse Catalytic Triad in Insect RNA Viruses” (Microbiology Spectrum, 2022).

The target of data set [1] is T1, DWV 3C protease (GST-DWV 3C^pro) (Deformed wing virus, UniProt Q8B3M2).
T1 construct: cDNA corresponding to amino acid 2094–2353 of DWV polyprotein; made in house; host or cells: E. coli BL21
Briefly: FRET protease assay of GST-DWV 3C^pro with fluorogenic peptide substrate. It counts as biochemical. The conditions noted are these: for IC50: pH 6.0, 33°C, n = 3, read-out: IC50 of DWV 3C^pro inhibitors; for Dependence of DWV 3C^pro inhibition on dithiothreitol: absence vs presence of 2 mM DTT. The procedure: Dabcyl-PVQAKPEMDNPNPGE-Edans derived from the cleavage site between L-protein and VP2 (underlined, 205-218 of polyprotein) was used as a peptide substrate to measure the protease activity. E was added to the C-terminus to link Edans. FRET experiments were performed with Varioskan LUX multimode microplate reader (Thermo Fisher). We measured 100 μL of reaction mixture with 50 mM Citrate buffer, pH 6.0, 150 mM NaCl, 2 mM EDTA, 2 mM DTT containing 1 μM GST-DWV 3C^pro and 20 μM fluorogenic peptide substrate in a 96-well flat-bottom white microplate at 33°C. The relative fluorescence was measured using an excitation wavelength of 336 nm and by monitoring the emission at 490 nm every 3 min for 30 min. In order to determine the optimal reaction condition for GST-DWV 3C^pro, various pH values, temperatures, and DTT concentrations were used. To test the effect of DTT on the activity, the protein dialyzed against TNE buffer was used. To determine the velocity of product formation, we precalibrated the instrument with the free Edans standard in the presence of 20 μM Dabcyl to calculate the relationship between relative fluorescence and substrate concentration. We calculated the kinetic parameters, Km, Vmax, and catalytic efficiency (Kcat/Km) assuming Michaelis-Menten kinetics for the cleavage of peptide.
To identify the inhibitors for DWV 3C^pro, various concentrations of the tested compounds were added. To determine the inhibitory effects of the various compounds, we preincubated the compound and enzyme on ice for 10 min prior to addition of the peptide substrate. To analyze the effects of ebselen, disulfiram, and carmofur, we used the enzyme dialyzed against TNE buffer and carried out the reaction with or without DTT. We determined the initial velocities of the enzymatic reactions and fitted to a sigmoidal dose-response equation with nonlinear regression analysis using GraphPad Prism 9. The data from three independent assays were used to determine IC50 value of each compound.

In data set [2] the test system is main protease of SARS-CoV-2. Conditions: by covalently modifying cysteine in the catalytic diad; cited from earlier work.
For data set [3], the system named is honey bee pupal head cells. The experiment in a line: Cell viability of honey bee pupal head cells (CellTiter-Lumi, intracellular ATP). The class given is cell-based, honey bee (Apis mellifera). The procedure: Honey bee pupal head cells were prepared as described above and 100 μL cell suspension (2 × 10^6/mL) was inoculated to each well in 96-well plate. The cells were cultured in the presence of either DMSO or ebselen at the indicated concentrations at 33°C for 16 h. The cultured plate was first incubated at room temperature for 10 min followed by adding 100 μL of reagent solution (CellTiter-Lumi Luminescent Cell Viability assay kit, Beyotime). The plate was shaken at room temperature for 2 min to promote cell lysis, and then further incubated for 10 min to stabilize the chemiluminescence signal. The signal was detected using Varioskan LUX multimode microplate reader and depends on intracellular ATP level, thus the relative viability of cells.

The subject of data set [4] is DWV. The experiment in a line: DWV replication (RdRP precursor synthesis, Western blot) in DWV-infected honey bee pupal head cells. The class given is cell-based, Deformed wing virus (DWV). As for the experimental part:
Honey bee pupae with pale/pink eyes were collected from a mite-free colony. They were surface sterilized by washing with 10% bleach followed by sterile PBS three times (5 min for each wash). Heads from the pupae were dissected and homogenized seven times with 1 mL Grace culture medium using Dounce homogenizer (Loose fitting). The homogenate was then filtered through a cell strainer (Falcon) and the number of cells was counted. 10^6 cells were suspended in 100 μL of Grace medium containing 10% FBS, antibiotics (penicillin and streptomycin), and ebselen at the indicated concentration with or without DWV (MOI: 10) in 24-well plate at 33°C for 1 h. DWV used for this study was one of type A strains (VD-B7) we previously isolated from Varroa mite-infested pupa ([8]). […]
After DWV infection, the pupal head cells were collected by centrifugation, and then homogenized with 150 μL of RIPA buffer (20 mM Tris-HCl, pH 7.5, 150 mM NaCl, 1% NP-40, 0.5% sodium deoxycholate, 0.1% SDS) containing protease inhibitor cocktail. After centrifugation of the homogenate, the protein concentration of supernatant was measured using Enhanced BCA protein assay kit. The cell lysate with 20 μg of protein was analyzed by Western blot for each sample. […] Band intensity of 97 kDa RdRP precursor was measured by image-J.
For orientation: Immunoblotting shows a protein as a band on a membrane.

Data set [5] relates to DWV. Also noted: method as in PMID 33643262. Conditions: based on the synthesis of RdRP, cited from earlier work.
In data set [6] the test system is enterovirus 3C^pro. The arrangement: method as in PMID 21813612, PMID 27645381, PMID 10197965. Conditions: cited from earlier work.
Data set [7] has as its system human rhinovirus 3C^pro. The arrangement: method as in PMID 21813612, PMID 27645381, PMID 10197965. Conditions: cited from earlier work.
The mark [8] stands for this setting: tested in the presence of 2 mM DTT, 1 μM enzyme, 20 μM peptide substrate.
Where [9] appears, read: compounds tested with or without 2 mM DTT and only effective without DTT.
Setting [10] is: peptide substrate 2-20 μM, Michaelis-Menten.

Where two headings read alike, the source gives them in different places. Primed or numbered codes have the meaning given here. *: point of attachment. Dabcyl′ = CN(C)c1ccc(/N=N/c2ccc(C(=O)*)cc2)cc1; EDANS = O=S(=O)(O)c1cccc2c(NCCN*)cccc12

T1 sequence (Q8B3M2 2094-2353): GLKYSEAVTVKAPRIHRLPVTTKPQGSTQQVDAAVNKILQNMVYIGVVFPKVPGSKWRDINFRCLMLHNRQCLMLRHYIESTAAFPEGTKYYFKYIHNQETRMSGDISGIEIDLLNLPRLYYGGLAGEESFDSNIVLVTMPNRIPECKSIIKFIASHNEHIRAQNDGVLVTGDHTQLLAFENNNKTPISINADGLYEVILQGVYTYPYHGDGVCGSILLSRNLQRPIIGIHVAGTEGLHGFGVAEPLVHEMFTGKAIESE

Turning to `[Zn]` [Zinc, zinc], the IC50 (in general, the point on the concentration scale where inhibition reaches its midpoint) in data set [1] (setting [8]) was found to be 15200 ± 422 µM.
Consider `CCCCCCNC(=O)n1cc(F)c(=O)[nH]c1=O` [Carmofur], for which the “Dependence of DWV 3C^pro inhibition on dithiothreitol” value (shortened to “Dependence of DWV 3C^pro inhibition”) in data set [1] is on record as “only effective without dithiothreitol”. For the same compound, in data set [1] (setting [9]), the IC50 amounted to 127 ± 6.2 µM. Also, in data set [2], the “Inhibition of the main protease of SARS-CoV-2” value (“Inhibition … of SARS-CoV-2” for short) was “inhibit the main protease of SARS-CoV-2”.
Turning to `CC(C)C[C@H](NC(=O)OCc1ccccc1)C(=O)N[C@@H](CC1CCNC1=O)C(O)S(=O)(=O)O` (some centres unmarked) [GC376], the IC50 in data set [1] (setting [8]) came to 55.2 ± 4 µM.
For `O=c1c2ccccc2[se]n1-c1ccccc1` [Ebselen], the “Dependence of DWV 3C^pro inhibition” value in data set [1] is recorded as “only effective without dithiothreitol”. In data set [1] (setting [9]), the IC50 came to 1.66 ± 0.02 µM. Besides, in data set [3], the “Toxicity to honey bee cells” value is reported as “toxic to the cells”. Also, in data set [3] (30 μM, 16 h, 33°C), the “Cell viability (luminescence) vs DMSO” value was “no significant difference”. For the same compound, the Cell viability result in data set [3] (100 and 250 μM, 16 h, 33°C, vs DMSO) is “cell viability was reduced”. Besides, the “Synthesis of the 97 kDa precursor of RdRP and 3C^pro” value in data set [4] (DWV-infected pupal head cells, MOI 10, 33°C, 16 h, increasing ebselen concentrations vs DMSO) is “decreased the synthesis of the 97 kDa precursor of RdRP and 3C^pro in a concentration-dependent manner”. Also, in data set [4] (cultured honey bee cells), the “DWV replication in honey bee cells” value is “inhibited DWV replication”. For the same compound, in data set [2], the “Inhibition … of SARS-CoV-2” value is given as “inhibit the main protease of SARS-CoV-2”.
As for `O=c1c(O)c(-c2ccc(O)c(O)c2)oc2cc(O)cc(O)c12` [Quercetin], the “DWV replication in honey bee pupal cells” value in data set [5] is “inhibited DWV replication”. Also, the IC50 in data set [1] (setting [8]) worked out at 430 ± 62.8 µM.
As to `O=C1C(Cl)=C(Cl)C(=O)c2ncccc21` [6,7-dichloroquinoline-5,8-dione], the IC50 in data set [1] (setting [8]) is 129 ± 1.8 µM.
For `CCOC(=O)/C=C/[C@H](C[C@@H]1CCNC1=O)NC(=O)[C@@H](CC(=O)[C@@H](NC(=O)c1cc(C)on1)C(C)C)Cc1ccc(F)cc1` [Rupintrivir], the “DWV replication in honey bee pupal cells” value in data set [5] is recorded as “inhibited DWV replication”; in data set [5] (listed as rupintrivir), “suppresses DWV replication”. Further, the IC50 in data set [1] (setting [8]) is 0.36 ± 0.03 µM; in data set [6] it was 1.65 to 7.3 µM; in data set [7], 0.005 µM.
In the case of `CCN(CC)C(=S)SSC(=S)N(CC)CC` [Disulfiram], the “Dependence of DWV 3C^pro inhibition” value in data set [1] is on record as “only effective without dithiothreitol”. Further, the IC50 in data set [1] (setting [9]) came out at 35.6 ± 0.8 µM. The “Inhibition … of SARS-CoV-2” value in data set [2] is recorded as “inhibit the main protease of SARS-CoV-2”.
For “PVQAKPEMDNPNPGE ({Dabcyl′}-PVQAKPEMDNPNPGE-{EDANS}) [Dabcyl-PVQAKPEMDNPNPGE-Edans, 15 amino acid fluorogenic FRET peptide substrate with the DWV L-protein/VP2 cleavage site]”, in data set [1] (setting [10]), the Km (in general, the substrate concentration at which the rate is half of its maximum) is 4.23 ± 0.256 µM and the Vmax – broadly, the rate approached at saturating substrate – was determined as 0.2538 ± 0.0067 µM/min.
